ChEMBL document CHEMBL1149948, “Chemical and enzymatic synthesis of high-affinity selectin ligands” (Bioorg Med Chem Lett, 1997)

What was measured:
P-selectin = biological target: T1, P-selectin (Homo sapiens, UniProt P16109); assay: Tested for its ability to inhibit HL60 cell adhesion to P-selectin-IgG fusion proteins; type: cell-based, HL-60
T1 sequence (P16109 whole entry): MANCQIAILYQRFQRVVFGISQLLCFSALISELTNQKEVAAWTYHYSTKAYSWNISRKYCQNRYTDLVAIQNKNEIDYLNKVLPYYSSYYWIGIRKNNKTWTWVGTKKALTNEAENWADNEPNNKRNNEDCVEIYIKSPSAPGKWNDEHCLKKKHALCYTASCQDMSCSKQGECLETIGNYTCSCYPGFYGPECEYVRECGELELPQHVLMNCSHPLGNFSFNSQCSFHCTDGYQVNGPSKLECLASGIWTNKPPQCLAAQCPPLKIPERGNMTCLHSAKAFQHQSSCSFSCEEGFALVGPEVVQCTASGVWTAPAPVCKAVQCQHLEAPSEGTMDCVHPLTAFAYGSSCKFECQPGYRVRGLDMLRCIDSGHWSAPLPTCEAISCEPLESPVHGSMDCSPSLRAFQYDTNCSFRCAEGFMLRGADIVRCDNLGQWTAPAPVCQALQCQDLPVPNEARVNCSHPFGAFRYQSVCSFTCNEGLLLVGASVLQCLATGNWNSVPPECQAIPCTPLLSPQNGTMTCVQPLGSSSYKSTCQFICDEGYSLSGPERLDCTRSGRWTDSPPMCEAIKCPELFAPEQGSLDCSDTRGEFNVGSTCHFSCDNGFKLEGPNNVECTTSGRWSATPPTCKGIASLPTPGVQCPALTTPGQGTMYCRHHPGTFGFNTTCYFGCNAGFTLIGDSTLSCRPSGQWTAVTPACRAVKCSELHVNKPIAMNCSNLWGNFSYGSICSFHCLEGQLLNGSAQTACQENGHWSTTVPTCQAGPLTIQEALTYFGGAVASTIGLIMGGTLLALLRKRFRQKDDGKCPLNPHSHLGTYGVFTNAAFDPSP

E-selectin = biological target: T2, E-selectin (Homo sapiens, UniProt P16581); assay: Tested for its ability to inhibit HL60 cell adhesion to Selectin E IgG fusion proteins; type: cell-based, HL-60
T2 sequence (P16581 whole entry): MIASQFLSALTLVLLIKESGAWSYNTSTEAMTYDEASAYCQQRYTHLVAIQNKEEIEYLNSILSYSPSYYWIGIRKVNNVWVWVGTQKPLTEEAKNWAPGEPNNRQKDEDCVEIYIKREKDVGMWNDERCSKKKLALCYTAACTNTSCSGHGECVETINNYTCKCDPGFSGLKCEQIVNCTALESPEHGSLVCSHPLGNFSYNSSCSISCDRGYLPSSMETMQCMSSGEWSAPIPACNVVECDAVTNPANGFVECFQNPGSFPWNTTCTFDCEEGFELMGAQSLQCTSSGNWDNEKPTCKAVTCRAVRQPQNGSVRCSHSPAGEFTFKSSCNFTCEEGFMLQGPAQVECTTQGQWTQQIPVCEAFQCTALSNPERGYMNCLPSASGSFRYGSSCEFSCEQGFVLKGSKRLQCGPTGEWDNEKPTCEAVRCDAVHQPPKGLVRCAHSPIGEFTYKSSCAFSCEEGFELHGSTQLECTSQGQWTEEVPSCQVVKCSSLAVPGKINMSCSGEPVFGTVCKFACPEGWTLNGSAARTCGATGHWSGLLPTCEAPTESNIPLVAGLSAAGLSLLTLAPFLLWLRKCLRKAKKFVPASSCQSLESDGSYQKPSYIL

Row | IC50 (P-selectin; hl-60) | IC50 (P-selectin) | IC50 (E-selectin) | Structure (SMILES)
1 | 2000 µM |  |  | CC(=O)N[C@@H]1[C@H](OCCCCCCN)O[C@@H](CO)[C@@H](O[C@@H]2O[C@@H](CO)[C@H](O)[C@H](O[C@]3(C(=O)O)C[C@@H](O)[C@@H](NC(C)=O)[C@H]([C@H](O)[C@H](O)CO)O3)[C@@H]2O)[C@@H]1O[C@@H]1O[C@@H](C)[C@@H](O)[C@H](O)[C@@H]1O
2 |  | 1000 µM | 900 µM | CC(=O)N[C@@H]1[C@H](OCCCCCCN)O[C@@H](CO)[C@@H](O[C@@H]2O[C@@H](CO)[C@H](O)[C@H](O[C@]3(C(=O)O)C[C@@H](O)[C@@H](N)[C@H]([C@H](O)[C@H](O)CO)O3)[C@@H]2O)[C@@H]1O[C@@H]1O[C@@H](C)[C@@H](O)[C@H](O)[C@@H]1O
3 |  | 700 µM | 700 µM | CC(=O)N[C@@H]1[C@H](OCCCCCCN)O[C@@H](CO)[C@@H](O[C@@H]2O[C@@H](CO)[C@H](O)[C@H](O[C@]3(C(=O)O)C[C@@H](O)C[C@H]([C@H](O)[C@H](O)CO)O3)[C@@H]2O)[C@@H]1O[C@@H]1O[C@@H](C)[C@@H](O)[C@H](O)[C@@H]1O
4 |  | 160 µM | 270 µM | C[C@@H]1O[C@@H](O[C@@H]2[C@H](N)[C@H](OCCCCCCN)O[C@@H](CO)[C@H]2O[C@@H]2O[C@@H](CO)[C@H](O)[C@H](O[C@]3(C(=O)O)C[C@@H](O)[C@@H](N)[C@H]([C@H](O)[C@H](O)CO)O3)[C@@H]2O)[C@@H](O)[C@@H](O)[C@@H]1O
